Measurements from patent US11512073B2, “Benzimidazole derivatives, pharmaceutical composition comprising the same, and use thereof” (Chongqing University of Arts and Sciences, priority 2020, dated 2022).
Residues, ends and D or L forms follow the SMILES beside them. *: point of attachment. Cbz = O=C(OCc1ccccc1)*; CH2F = FC*

System: TNBC cells
Assay: MTT cell viability assay, statements for both TNBC lines
Format: cell-based, Human
Settings: Z-VAD-FMK 20 μM with compound 7a 20 μM, 48 h
Protocol: Compounds were dissolved in a hydrous dimethylsulfoxide (DMSO, Life technologies) to obtain a 50 mM stock solution, which was then added to the culture medium at a concentration range of 6.25-100 μM. […] Z-VAD-FMK was purchased from Selleckchem (Houston, Tex.); The reagents including 3-(4,5-dimethylthiazol-2-yl)-2,5-diphenyltetrazolium bromide (MTT), dimethyl sulfoxide (DMSO), penicillin, streptomycin, propidium iodide (PI) were purchased from Sigma-Aldrich (MO, USA); All the primary antibodies used in this study were from Cell Signaling Technology (MA, USA) and the secondary antibodies were from LI-COR Biosciences (NE, USA).
Human triple negative breast cancer cell lines MDA-MB-231 and MDA-MB-468 were purchased from the American Type Culture Collection (ATCC, VA, USA). These cells were cultured in high-glucose DMEM (Gibco, USA) supplemented with 10% fetal bovine serum (FBS, Gibco) and 1% penicillin/streptomycin (Gibco) at 37° C. in a humidified incubator containing 5% CO2.
The antiproliferative activity of compounds was measured with the MTT assay. […] The absorbance value was determined at 570 nm using a microplate reader (Bio-Tek, VT, USA). Data were analyzed by GraphPad Prism 6. […]

## COC(=O)C[C@H](NC(=O)[C@H](C)NC(=O)[C@@H](NC(=O)OCc1ccccc1)C(C)C)C(=O)CF [Z-VAD-FMK, reference compound] (Cbz-Val-Ala-Asp(OMe)-CH2F)
  rescue of compound 7a-induced apoptosis (cell viability): partially rescue cell apoptosis induced by compound 7a
